In patent publication US6683077B2, “2-Amino-benzoxazinones for the treatment of viral infections” (G.D. Searle & Co., priority 1996, dated 2004):

Key:
[1] = target: T1, Bovine pancreas α-chymotrypsin (Bos taurus, UniProt P00766, DEL14-15/DEL147-148); assay: Chymotrypsin assay; type: biochemical
T1 construct: Bovine pancreas α-chymotrypsin (type II, Sigma); purchased Sigma type II; host or cells: bovine pancreas
Protocol: The chymotrypsin assay was modified from the method of Delmar et al [Anal. Biochem., 99, 316-320 (1979)]. Bovine pancreas α-chymotrypsin (type II, Sigma) was dissolved in 0.001 N HCl at 1 mg/ml and further diluted 1/600 in assay buffer (0.1 M Tris, pH 7.8, containing 0.1 M CaCl2) before use. 20 μl of test compound in DMSO (or DMSO alone), 100 μl of assay buffer and 30 μl of enzyme were added to […], mixed and pre-incubated for 30 minutes at ambient temperature. Reaction was initiated by addition of 50 Al of 0.2 mM N-succinyl-Ala-Ala-Pro-Phe-p-nitroanilide (Sigma; 2 mM in DMSO diluted 1/10 in assay buffer before use). The increase in absorbance at 405 nm was monitored for 10 minutes with a Biotek EL340 plate reader.

[2] = test system: human foreskin fibroblasts
[3] = test system: HCMV (strain AD169); assay: HCMV ELISA antiviral assay (viral antigen); type: cell-based, human cytomegalovirus; settings: Human betaherpesvirus 5, Fibroblast; HCMV AD169 in human foreskin fibroblasts; value before the slash; unit inferred; read-out: Antiviral Activity Elisa, first value (EC50)
Excerpt: These complimentary assays tested the ability of a compound to inhibit the production of new virus and the toxicity of the compound to she host cells. It was important that both assays be performed simultaneously in order to compare the results directly since, toxicity may indirectly reduce viral yield.
Viral yield was estimated by measuring the amount of a viral antigen produced 4 days post infection with a monoclonal antibody to an abundant “immediate early” viral protein. An enzyme-linked (horseradish peroxidase) secondary antibody specific to the primary (mouse) antibody was urged to measure the amount of viral antigen. Test compounds were diluted to 2-times the desired final concentration in DMEM+5% FBS. One hundred microliters of this solution was placed in each well of a 96-well plate. This was performed once for the antiviral 96-well plate and again for a cytotoxicity plate. Two controls were also included for both plates; a no drug control and a no virus control. Ganciclovir was routinely tested in antiviral and cytotoxicity plates as a reference standard because it has known antiviral activity for HCMV. All cells were prepared by harvesting human foreskin fibroblasts, with trypsin and re-suspending at a concentration of 5×10^5 cells per ml in DMEM. Infected cells were prepared by infecting these with HCMV (strain AD169) at a multiplicity of infection=0.2. One hundred microliters of uninfected cells (5×10^4 cells) were added to the appropriate wells of the cytotoxicity plate. In a similar manner 100 μl of infected cells (5×10^4 cells) were added to the appropriate wells of the antiviral plate. Additionally, uninfected cells not treated with test compound were included as controls on the antiviral plate. Plates were incubated for 96 hours at 37° C. in 5% CO2 atmosphere and processed to measure the amount of viral antigen and toxicity.
The following was performed on the antiviral plate only. Media was removed and cells were fixed with 1:1 acetone:methanol for 15 minutes at −20° C. Fixative was removed and cells were washed once with PBS containing 0.05% Tween20. In order to block nonspecific binding of antibodies, each well was incubated with PBS containing 3% (w/v) bovine serum albumin (BSA) for 1 hour at 22° C. The blocking solution was removed and the cells were washed once with PBS containing 0.05% Tween20 before incubating with 1:100 dilution of primary antibody in PBS containing 3% BSA for 2 hours at 22° C. The primary antibody was a monoclonal antibody (mouse source) specific to the immediate early nuclear antigen of HCMV and was commercially available (Dupont). The 1° antibody solution was removed and the plate was rinsed 5 times with PBS containing 1% (v/v) Triton X-100 (PBST) before incubating with secondary antibody diluted 1:1000 in PBS containing 3% BSA for 2 hours at 22° C. The secondary antibody (goat source) recognized the murine-specific determinants of the 1° antibody and was covalently linked to horseradish peroxidase (Sigma). The plate was rinsed 5 times with PBST and once with deionized water before adding 100 μl TMB substrate solution and incubating 30 minutes at 22° C. The reaction was stopped by adding 100 μL of phosphoric acid and the OD at 450 nm recorded. TMB (3,3′,5,5′ tetramethylbenzidine) was the substrate for the horseradish peroxidase linked to the 2° antibody. It was made from a commercially available kit (Kirkegaard & Perry Laboratories, Inc.). Antiviral activity was calculated by comparing the amount of viral antigen produced in drug treated wells with that produced in wells absent of drug.

[4] = target: T2, Human leukocyte elastase (HLE) (Homo sapiens, UniProt P08246); assay: Human leukocyte elastase assay; type: biochemical; settings: @ 100 (concentration unit not given)
T2 construct: gift of R. Senior, Washington University
T2 sequence (P08246 30-267): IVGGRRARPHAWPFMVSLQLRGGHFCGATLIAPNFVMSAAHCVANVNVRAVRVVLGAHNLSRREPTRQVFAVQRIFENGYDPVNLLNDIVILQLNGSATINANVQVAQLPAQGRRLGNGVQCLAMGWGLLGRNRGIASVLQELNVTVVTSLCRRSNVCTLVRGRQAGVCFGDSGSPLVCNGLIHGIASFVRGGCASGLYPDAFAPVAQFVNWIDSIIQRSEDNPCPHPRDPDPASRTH
Method in brief: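 HLE in 0.2 M Tris, pH 8.0, was preincubated 30 minutes at ambient temperature with compound in DMSO. The reaction was started with methoxysuccinyl-Ala-Ala-Pro-Val-p-nitroanilide (2.5 mM added solution), and absorbance increase at 405 nm was monitored for 10 minutes.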

[5] = target: HCMV protease (assemblin) (Human cytomegalovirus, UniProt P16753); assay: Enzymatic assay for HCMV protease (assemblin) inhibitors; type: biochemical
[6] = test system: HCMV engineered virus RC256; assay: microbe, parasite or virus in culture; type: cell-based, human cytomegalovirus; settings: Human betaherpesvirus 5, Fibroblast, read-out: Antiviral Activity RC256, first value (EC50)

HCMV protease (assemblin), sequence (P16753 1-256): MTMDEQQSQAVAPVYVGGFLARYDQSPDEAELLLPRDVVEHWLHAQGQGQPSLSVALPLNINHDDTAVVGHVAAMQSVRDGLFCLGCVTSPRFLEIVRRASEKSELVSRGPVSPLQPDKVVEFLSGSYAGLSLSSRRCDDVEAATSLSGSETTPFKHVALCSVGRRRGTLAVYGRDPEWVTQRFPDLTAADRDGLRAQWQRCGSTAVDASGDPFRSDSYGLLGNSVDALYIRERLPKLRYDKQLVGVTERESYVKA

## 1,1-Dimethylethyl[2-[[1S-[(4-methoxyphenyl)methyl]-2-oxo-2-[[2-(2-pyridinyl)ethyl]amino]ethyl]amino]-5-methyl-4-oxo-4H-3,1-benzoxazin-6-yl]carbamate [Example 6hh]
[1]; @ 10 (concentration unit not given)
  Chymotrypsin, % @ concentration: 21% @ 10
[2]
  Antiviral Activity RC256, second value (cytotoxicity): 60

## 3,5-Diiodo-N-(5-methyl-(3,5-diiodo)2-yl)-L-tyrosine, methyl ester [Example 1q]
[2]
  Antiviral Activity RC256, second value (cytotoxicity): 70

## COC(=O)[C@H](C)Nc1nc2cccc(C)c2c(=O)o1 [Example 1b, N-(5-Methyl-4-oxo-4H-3,1-benzoxazin-2-yl)-L-alanine, methyl ester]
[3]
  EC50: 72 µM

## Cc1cccc2nc(N[C@@H](C)c3ccccc3)oc(=O)c12 [Example 3b, 5-Methyl-2-[[(1S)-1-phenylethyl]amino]-4H-3,1-benzoxazin-4-one]
[3]
  EC50: 27 µM

## Cc1c(NC(=O)OC(C)(C)C)ccc2nc(N[C@@H](C)C(=O)N(C)Cc3ccccc3)oc(=O)c12 [Example 6aa, N-[6-[[(1,1-Dimethylethoxy)carbonyl]amino]-5-methyl-4-oxo-4H-3,1-benzoxazin-2-yl]-L-alanine, N-methyl-N-phenylmethylamide]
[3]
  EC50: 75 µM

## COC(=O)[C@H](Cc1cscn1)Nc1nc2ccc(NC(=O)OC(C)(C)C)c(C)c2c(=O)o1 [Example 6e, N-[6-[[(1,1-Dimethylethoxy)carbonyl]amino]-5-methyl-4-oxo-4H-3,1-benzoxazin-2-yl]-L-thiazol-4-yl-alanine, methyl ester]
[3]
  EC50: 58 µM

## Cc1c(NC(=O)OC(C)(C)C)ccc2nc(N[C@@H](C)C(=O)N3CCCC3)oc(=O)c12 [Example 6g, N-[6-[[(1,1-Dimethylethoxy)carbonyl]amino]-5-methyl-4-oxo-4H-3,1-benzoxazin-2-yl]-L-alanine, pyrrolidineamiae]
[3]
  EC50: 100 µM

## COCC(=O)Nc1ccc2nc(N[C@@H](Cc3ccccc3)C(=O)OC)oc(=O)c2c1C [Example 11c, N-[6-[[(Methoxymethyl)carbonyl]amino]-5-methyl-4-oxo-4H-3,1-benzoxazin-2-yl]-L-phenylalanine, methyl ester]
[3]
  EC50: 77 µM
[4]
  HLE, % @ concentration: 83% @ 100

## Cc1c(NC(=O)CN(C)C)ccc2nc(N[C@@H](C)c3ccccc3)oc(=O)c12 [Example 11m, 5-Methyl-6-[[(dimethylaminomethyl)carbonyl]amino]-2-[[(1S)-phenylethyl]amino]-4H-3,1-benzoxazin-4-one]
[5]; @ 1 (concentration unit not given)
  Assemblin Protease, % @ concentration: 67% @ 1.0
[3]
  EC50: 88 µM
[4]
  HLE, % @ concentration: 37% @ 100

## COc1ccc(C[C@H](Nc2nc3ccc(NC(=O)Oc4ccccc4)c(C)c3c(=O)o2)C(=O)N(C)Cc2ccccc2)cc1 [Example 11q, Phenyl[2-[[1S-[(4-methoxyphenyl)methyl]-2-[methyl(phenylmethyl)amino]-2-oxcethyl]amino]-5-methyl-4H-3,1-benzoxazin-6-yl]carbamate]
[5]
  IC50: 0.6 µM
[6]
  EC50: 18 µM
[1]
  IC50: 2.4 µM
